In this test the target is T1, full-length MALT1 protein (Strep-MALT1(1-824)-His) (Homo sapiens, UniProt Q9UDY8).
T1 sequence (Q9UDY8 1-824): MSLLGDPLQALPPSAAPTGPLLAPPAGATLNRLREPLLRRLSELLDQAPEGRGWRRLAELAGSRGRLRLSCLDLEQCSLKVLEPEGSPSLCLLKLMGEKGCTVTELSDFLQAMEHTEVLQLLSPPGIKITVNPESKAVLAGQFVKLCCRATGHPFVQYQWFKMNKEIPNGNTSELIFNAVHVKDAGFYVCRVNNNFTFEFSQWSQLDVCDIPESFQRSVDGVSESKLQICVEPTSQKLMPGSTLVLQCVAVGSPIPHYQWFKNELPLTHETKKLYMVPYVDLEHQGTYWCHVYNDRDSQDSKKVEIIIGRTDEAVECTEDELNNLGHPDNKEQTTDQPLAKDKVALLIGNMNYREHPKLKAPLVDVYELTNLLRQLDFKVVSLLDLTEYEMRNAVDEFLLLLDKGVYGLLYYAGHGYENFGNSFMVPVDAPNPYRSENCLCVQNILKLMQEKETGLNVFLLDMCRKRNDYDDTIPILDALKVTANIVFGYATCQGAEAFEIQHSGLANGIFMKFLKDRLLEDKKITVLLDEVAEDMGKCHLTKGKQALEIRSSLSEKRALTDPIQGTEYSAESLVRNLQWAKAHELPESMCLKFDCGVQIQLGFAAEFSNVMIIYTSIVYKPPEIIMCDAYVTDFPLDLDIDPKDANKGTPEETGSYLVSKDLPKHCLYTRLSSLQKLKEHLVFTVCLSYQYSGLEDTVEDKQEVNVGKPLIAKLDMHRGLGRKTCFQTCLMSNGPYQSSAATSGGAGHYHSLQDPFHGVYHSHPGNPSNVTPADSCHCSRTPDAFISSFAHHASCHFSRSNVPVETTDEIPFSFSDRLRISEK
Kind of test: biochemical.
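Note: fluorogenic LRSR-AMC substrate cleavage by MALT1, 50 min compound preincubation then 4 h reaction at RT, 11-point dilution from 30 µM, scaled between enzyme-free and untreated enzyme controls.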

Compound `N#Cc1cnccc1-n1ncc(C(=O)Nc2cnc(-n3nccn3)c(C#N)c2)c1C(F)(F)F` [Cpd 46, N-(5-cyano-6-(2H-1,2,3-triazol-2-yl)pyridin-3-yl)-1-(3-cyanopyridin-4-yl)-5-(trifluoromethyl)-1H-pyrazole-4-carboxamide] returned an IC50 of 479 nM. This counts as sub-micromolar. As for `Cc1ccnc(-n2ncc(C(=O)Nc3cnc(-n4nccn4)c(C#N)c3)c2C(F)(F)F)c1Cl` [Cpd 47, 1-(3-chloro-4-methylpyridin-2-yl)-N-(5-cyano-6-(2H-1,2,3-triazol-2-yl)pyridin-3-yl)-5-(trifluoromethyl)-1H-pyrazole-4-carboxamide], half-maximal inhibition (IC50) required 537 nM. Under `COc1ccnc(-n2ncc(C(=O)Nc3cnc(-n4nccn4)c(Cl)c3)c2C(F)(F)F)c1Cl` [Cpd 65, 1-(3-chloro-4-methoxypyridin-2-yl)-N-(5-chloro-6-(2H-1,2,3-triazol-2-yl)pyridin-3-yl)-5-(trifluoromethyl)-1H-pyrazole-4-carboxamide] stands 5750 nM; under `COc1ccnc(-n2ncc(C(=O)Nc3cnc(-n4nccn4)c(C#N)c3)c2C(F)(F)F)c1Cl` [Cpd 66, 1-(3-chloro-4-methoxypyridin-2-yl)-N-(5-cyano-6-(2H-1,2,3-triazol-2-yl)pyridin-3-yl)-5-(trifluoromethyl)-1H-pyrazole-4-carboxamide], 3980 nM; under `O=C(Nc1cnc(-n2nccn2)c(Cl)c1)c1cnn(-c2c(Cl)cncc2Cl)c1C(F)(F)F` [Cpd 67, N-(5-chloro-6-(2H-1,2,3-triazol-2-yl)pyridin-3-yl)-1-(3,5-dichloropyridin-4-yl)-5-(trifluoromethyl)-1H-pyrazole-4-carboxamide], 525 nM.

Take `Cc1c(F)ccc(-n2ncc(C(=O)Nc3cnc(-n4nccn4)c(Cl)c3)c2C(F)(F)F)c1Cl` [Cpd 71, 1-(2-chloro-4-fluoro-3-methylphenyl)-N-(5-chloro-6-(2H-1,2,3-triazol-2-yl)pyridin-3-yl)-5-(trifluoromethyl)-1H-pyrazole-4-carboxamide]: inhibition was half-maximal at 832 nM (IC50).

`Cc1c(F)ccc(-n2ncc(C(=O)Nc3cnc(-n4nccn4)c(C#N)c3)c2C(F)(F)F)c1Cl` [Cpd 72, 1-(2-chloro-4-fluoro-3-methylphenyl)-N-(5-cyano-6-(2H-1,2,3-triazol-2-yl)pyridin-3-yl)-5-(trifluoromethyl)-1H-pyrazole-4-carboxamide] had a concentration for half-maximal inhibition (IC50) of 603 nM. Regarding `CS(=O)(=O)c1cccc(-n2ncc(C(=O)Nc3cnc(-n4nccn4)c(Cl)c3)c2C(F)(F)F)c1` [Cpd 74, N-(5-chloro-6-(2H-1,2,3-triazol-2-yl)pyridin-3-yl)-1-(3-(methylsulfonyl)phenyl)-5-(trifluoromethyl)-1H-pyrazole-4-carboxamide], the midpoint of inhibition, the IC50, lay at 2880 nM.

`Cc1cc(S(C)(=O)=O)ccc1-n1ncc(C(=O)Nc2cnc(-n3nccn3)c(Cl)c2)c1C(F)(F)F` [Cpd 75, N-(5-chloro-6-(2H-1,2,3-triazol-2-yl)pyridin-3-yl)-1-(2-methyl-4-(methylsulfonyl)phenyl)-5-(trifluoromethyl)-1H-pyrazole-4-carboxamide] displayed an IC50 of 1070 nM. The figure for `CC(C)c1ccccc1-n1ncc(C(=O)Nc2cnc(-n3nccn3)c(Cl)c2)c1C(F)(F)F` [Cpd 76, N-(5-chloro-6-(2H-1,2,3-triazol-2-yl)pyridin-3-yl)-1-(2-isopropylphenyl)-5-(trifluoromethyl)-1H-pyrazole-4-carboxamide] is 676 nM.

For the compound `Cc1c(F)ccc(-n2ncc(C(=O)Nc3cnc(-n4nccn4)c(Cl)c3)c2C(F)(F)F)c1C` [Cpd 77, N-(5-chloro-6-(2H-1,2,3-triazol-2-yl)pyridin-3-yl)-1-(4-fluoro-2,3-dimethylphenyl)-5-(trifluoromethyl)-1H-pyrazole-4-carboxamide], 891 nM corresponded to half-maximal inhibition (IC50). Compound `O=C(Nc1cnc(-n2nccn2)c(Cl)c1)c1cnn(-c2ccc(F)c(F)c2)c1C(F)(F)F` [Cpd 78, N-(5-chloro-6-(2H-1,2,3-triazol-2-yl)pyridin-3-yl)-1-(3,4-difluorophenyl)-5-(trifluoromethyl)-1H-pyrazole-4-carboxamide] came in with an IC50 of 646 nM. `O=C(Nc1cnc(-n2nccn2)c(Cl)c1)c1cnn(-c2cc(F)ccc2Cl)c1C(F)(F)F` [Cpd 79, 1-(2-chloro-5-fluorophenyl)-N-(5-chloro-6-(2H-1,2,3-triazol-2-yl)pyridin-3-yl)-5-(trifluoromethyl)-1H-pyrazole-4-carboxamide] displayed an IC50 of 380 nM. `N#Cc1cc(NC(=O)c2cnn(-c3cc(F)ccc3Cl)c2C(F)(F)F)cnc1-n1nccn1` [Cpd 80, 1-(2-chloro-5-fluorophenyl)-N-(5-cyano-6-(2H-1,2,3-triazol-2-yl)pyridin-3-yl)-5-(trifluoromethyl)-1H-pyrazole-4-carboxamide] displayed a half-maximal inhibitory concentration (IC50) of 209 nM.

The compound `N#Cc1cc(-n2ncc(C(=O)Nc3cnc(-n4nccn4)c(Cl)c3)c2C(F)(F)F)ccc1F` [Cpd 85, N-(5-chloro-6-(2H-1,2,3-triazol-2-yl)pyridin-3-yl)-1-(3-cyano-4-fluorophenyl)-5-(trifluoromethyl)-1H-pyrazole-4-carboxamide] showed an IC50 of 2630 nM. Compared with the last compound, the IC50 is about 13-fold higher. `N#Cc1cc(-n2ncc(C(=O)Nc3cnc(-n4nccn4)c(C#N)c3)c2C(F)(F)F)ccc1F` [Cpd 86, 1-(3-cyano-4-fluorophenyl)-N-(5-cyano-6-(2H-1,2,3-triazol-2-yl)pyridin-3-yl)-5-(trifluoromethyl)-1H-pyrazole-4-carboxamide] registered an IC50 of 1550 nM. With `Cc1cc(F)ncc1-n1ncc(C(=O)Nc2cnc(-n3nccn3)c(Cl)c2)c1C(F)(F)F` [Cpd 87, N-(5-chloro-6-(2H-1,2,3-triazol-2-yl)pyridin-3-yl)-1-(6-fluoro-4-methylpyridin-3-yl)-5-(trifluoromethyl)-1H-pyrazole-4-carboxamide], half-maximal inhibition (IC50) was put at 724 nM. Turning to `Cc1ncccc1-n1ncc(C(=O)Nc2cnc(-n3nccn3)c(C#N)c2)c1C(F)(F)F` [Cpd 88, N-(5-cyano-6-(2H-1,2,3-triazol-2-yl)pyridin-3-yl)-1-(2-methylpyridin-3-yl)-5-(trifluoromethyl)-1H-pyrazole-4-carboxamide], the IC50 amounted to 794 nM. As to `O=C(Nc1cnc(-n2nccn2)c(Cl)c1)c1cnn(-c2ccc(F)c(F)c2F)c1C(F)(F)F` [Cpd 89, N-(5-chloro-6-(2H-1,2,3-triazol-2-yl)pyridin-3-yl)-5-(trifluoromethyl)-1-(2,3,4-trifluorophenyl)-1H-pyrazole-4-carboxamide], the IC50 turned out to be 646 nM. In turn, `O=C(Nc1cnc(-n2nccn2)c(Cl)c1)c1cnn(-c2c(F)cccc2Cl)c1C(F)(F)F` [Cpd 90, N-(5-chloro-6-(2H-1,2,3-triazol-2-yl)pyridin-3-yl)-1-(2-chloro-6-fluorophenyl)-5-(trifluoromethyl)-1H-pyrazole-4-carboxamide] registered an IC50 of 575 nM. The IC50 values of the last two compounds are within 1.5-fold of each other. Under `Cc1ccncc1-n1ncc(C(=O)Nc2cnc(-n3nccn3)c(C#N)c2)c1C(F)(F)F` [Cpd 91, N-(5-cyano-6-(2H-1,2,3-triazol-2-yl)pyridin-3-yl)-1-(4-methylpyridin-3-yl)-5-(trifluoromethyl)-1H-pyrazole-4-carboxamide] stands 513 nM; under `Cc1cccc(F)c1-n1ncc(C(=O)Nc2cnc(-n3nccn3)c(Cl)c2)c1C(F)(F)F` [Cpd 92, N-(5-chloro-6-(2H-1,2,3-triazol-2-yl)pyridin-3-yl)-1-(2-fluoro-6-methylphenyl)-5-(trifluoromethyl)-1H-pyrazole-4-carboxamide], 501 nM.

In general, IC50 refers to the point on the concentration scale where inhibition reaches its midpoint.

These data come from US11040031B2, “Pyrazole derivatives as MALT1 inhibitors” (Janssen Pharmaceutica NV, priority 2018, dated 2021).
